In patent US20260234185A1, “ANTI-AGING COMPOSITION COMPRISING PEPTIDE COMPLEX AS ACTIVE INGREDIENT” (priority 2023, published 2026):
Where no end group is shown, it is not given here.

How the values were obtained:
[1] = tested on: fibroblast growth factor 21 (FGF21); assay: Western blot of FGF21 protein expression in adipocytes; format: cell-based; details: differentiated 3T3-L1 adipocytes; 0.2, 2, 20 μg/mL; 1 hour; Western blot (FIGS. 1a, 1b)
Description: An experiment was performed to determine whether the peptide complex prepared in Preparation Example 1 using adipocytes increases the phosphorylation of AMP-activated protein kinase (AMPK), which is a longevity-related protein, and increases the expression levels of sirtuin 1 (SIRT1) and fibroblast growth factor 21 (FGF21) proteins in adipocytes.
(§1) When 3T3-L1 preadipocytes reached 80% confluence, they were seeded at 5×10^3 cells/well in a 96-well plate and used for the experiment. Two days after reaching confluence, the medium was replaced with a differentiation-inducing medium to induce the differentiation into adipocytes, and two days after the induction, the cells were cultured for 2 days in a medium containing 10% FBS and 10 μg/mL insulin, and then the medium was replaced with 10% FBS every 2 days until their differentiation into adipocytes. Once the differentiation was complete, the medium was replaced with a serum-free medium and cultured for 4 hours to induce starvation. The peptide complexes were treated at concentrations of 0.2 μg/mL, 2 μg/mL, and 20 μg/mL, incubated for 1 hour, dissolved by adding dissolution buffer thereto, and the proteins obtained by centrifugation at 4° C. and 12,000 rpm for 30 minutes were quantified using a BCA kit. […]

[2] = tested on: SIRT1 (sirtuin1) protein; assay: Western blot of SIRT1 protein expression in palmitate-treated adipocytes (insulin metabolic disorder); format: cell-based; details: 3T3-L1 adipocytes, 25 μM palmitate 30 minutes; 0.2, 2, 20 μg/mL; 24 hours; Western blot (FIGS. 3a, 3b)
Description: An experiment was performed to determine whether the peptide complex prepared in Preparation Example 1 increases the phosphorylation of AMP-activated protein kinase (AMPK) and the expression level of SIRT1 (sirtuin1) protein in adipocytes in a state of insulin metabolic disorder induced by palmitate treatment.
as §1, with “Once” for “Once the”, “starvation. After 30 minutes of treatment with 25 μM palmitate, the” for “starvation. The”, “20 μg/mL and” for “20 μg/mL,”, “for 24 hours. After dissolving” for “for 1 hour, dissolved”, “dissolution buffer,” for “dissolution buffer thereto, and”

[3] = tested on: SIRT1; assay: Western blot of SIRT1 expression in myocytes with palmitate-induced insulin metabolic disorder; format: cell-based, mouse; details: C2C12 myocytes in insulin metabolic disorder induced by palmitate treatment; 0.2, 2, 20 μg/mL; 24 hours; Western blot (FIGS. 7a, 7b)
Description: An experiment was performed to determine whether the peptide complex increases AMPK phosphorylation and SIRT1 expression levels in myocytes in a state of insulin metabolic disorder induced by palmitate treatment.
C2C12 cells, mouse-derived myoblasts, were cultured in DMEM medium containing 1% P/S and 2% BCS. When the cell confluency reached 70-80%, the cells were seeded in a 6-well culture plate. When the cell confluency in the 6-well culture plate reached 100%, the medium was replaced with differentiation medium (1% P/S, 2% horse serum), and thereafter, the differentiation medium (1% P/S, 2% horse serum) was replaced once every two days. Five days after the first replacement, the peptide complex was treated at concentrations of 0.2 μg/mL, 2 μg/mL, and 20 μg/mL and cultured for 24 hours. The group untreated with the peptide complex was used as the control. After dissolving by adding dissolution buffer thereto, the proteins obtained were centrifuged at 4° C. and 12,000 rpm for 30 minutes, and quantified using a BCA kit. The proteins were subjected to sodium dodecyl sulfate-polyacrylamide gel electrophoresis (SDS-PAGE) and then electrotransferred onto a membrane. The membrane with the proteins attached was blocked by treating it with 5% skim milk, and then the primary antibody was reacted overnight at 4° C. […]

peptide complex: prepared by mixing equal amounts of the peptide of SEQ ID NO: 1 (LKTRN) and the peptide of SEQ ID NO: 2 (KGSATGWMA) (also: mixture of two peptides)
increased: expression level of FGF21 protein [1] | expression level of SIRT1 protein [2] | expression level of SIRT1 protein [3]
